Results from patent publication US11530222B2, “Substituted pyrrolopyrimidine and pyrazolopyrimidine as Bruton's tyrosine kinase (BTK) degraders” (ACCUTAR BIOTECHNOLOGY INC., priority 2021, dated 2022).

Key:
BTK = biological target: T1, BTK (Homo sapiens, UniProt Q06187); experiment: BTK degradative activity in a RAMOS cell line (Western blot); type: cell-based; details: 6 hours after administration, read-out: RAMOS BTK Degradation DC50
T1 construct: BTK Degradative Activity of Exemplary Compounds of the Present Disclosure in a RAMOS Cell Line; host or cells: RAMOS
How it was run: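 Ramos cells in RPMI with 10% FBS were treated with compound in DMSO at various concentrations for 6 h at 37 °C. BTK was measured by Western blot against GAPDH with infrared fluorescent detection and band quantification. DC50 is the concentration at which 50% of BTK is degraded.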

REC-1 cells = experiment: Growth inhibitory activity in BTK-dependent REC-1 cell line (CellTiter-Glo); type: cell-based; details: Homo sapiens, Rec1, 144 h, 6 days after administration, read-out: REC1 Cellular Grwoth Inhibition IC50
Description: REC-1 (ATCC) and REC-1 BTK^C481S cells were plated in 96-well plates at 8,000 cells/well in 90 ul of RPMI growth medium containing 10% heat-inactivated FBS and 1× Penicillin Streptomycin, and then incubated at 37° C. overnight. The following day, the test compound was administered to the cells by using 10× compound stock solution prepared in growth medium at various concentrations. After administration of the compound, cells were then incubated at 37° C. for 6 days. Before CellTiter-Glo assay, the plates were equilibrated at room temperature for approximately 10 minutes. 100 ul of CellTiter-Glo® Reagent (Promega) was added to each well. The plates were then incubated at room temperature for 10 minutes and luminescence was recorded by EnSpire plate reader (PerkinElmer).
The GI50 values (i.e., the concentration of test compound at which 50% of cell growth are inhibited) were calculated. A designation of “A” corresponds to a […] value less than 20 nM. A designation of “B” corresponds to a […] value greater than or equal to 20 nM and less than 200 nM. A designation of “C” corresponds to a […] value greater than or equal to 200 nM.

T1 sequence (Q06187 whole entry): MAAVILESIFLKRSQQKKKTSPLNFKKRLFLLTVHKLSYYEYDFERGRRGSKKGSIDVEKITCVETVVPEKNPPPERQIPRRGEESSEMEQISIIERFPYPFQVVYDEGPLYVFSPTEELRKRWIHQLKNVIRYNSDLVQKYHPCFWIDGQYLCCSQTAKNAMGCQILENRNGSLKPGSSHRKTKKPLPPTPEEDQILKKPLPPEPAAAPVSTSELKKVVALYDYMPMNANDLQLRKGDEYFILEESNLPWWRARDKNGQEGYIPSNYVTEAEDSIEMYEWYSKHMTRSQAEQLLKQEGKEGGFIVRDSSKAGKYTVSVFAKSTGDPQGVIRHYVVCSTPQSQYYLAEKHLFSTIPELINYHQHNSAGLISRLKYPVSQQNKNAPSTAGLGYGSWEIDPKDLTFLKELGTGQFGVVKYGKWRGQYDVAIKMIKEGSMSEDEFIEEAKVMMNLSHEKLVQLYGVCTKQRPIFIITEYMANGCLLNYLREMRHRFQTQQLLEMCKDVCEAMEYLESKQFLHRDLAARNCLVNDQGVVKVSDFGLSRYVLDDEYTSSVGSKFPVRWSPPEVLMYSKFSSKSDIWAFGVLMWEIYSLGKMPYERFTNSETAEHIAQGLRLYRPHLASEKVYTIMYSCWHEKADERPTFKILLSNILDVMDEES

DC50 (BTK) [nM] | SMILES | IC50 (REC-1 cells) [nM]
10 to 100 | COc1ccc(F)cc1C(=O)NCc1ccc(-c2nn(-c3ccc(N4CCC(CN5CCN(c6ccc7c(c6)C(=O)N(C6CCC(=O)NC6=O)C7=O)CC5)CC4)c(F)c3)c3ncnc(N)c23)cc1 (stereo not drawn) [Compound 50, N-(4-(4-amino-1-(4-(4-((4-(2-(2,6-dioxopiperidin-3-yl)-1,3-dioxoisoindolin-5-yl)piperazin-1-yl)methyl)piperidin-1-yl)-3-fluorophenyl)-1H-pyrazolo[3,4-d]pyrimidin-3-yl)benzyl)-5-fluoro-2-methoxybenzamide] | < 20
< 10 | COc1ccc(F)cc1C(=O)NCc1ccc(-c2nn(-c3ccc(N4CCC(CN5CCN(c6cc7c(cc6F)C(=O)N([C@H]6CCC(=O)NC6=O)C7)CC5)CC4)c(F)c3)c3ncnc(N)c23)cc1 [Compound 51, (S)—N-(4-(4-amino-1-(4-(4-((4-(2-(2,6-dioxopiperidin-3-yl)-6-fluoro-1-oxoisoindolin-5-yl)piperazin-1-yl)methyl)piperidin-1-yl)-3-fluorophenyl)-1H-pyrazolo[3,4-d]pyrimidin-3-yl)benzyl)-5-fluoro-2-methoxybenzamide] | < 20
< 10 | COc1ccc(F)cc1C(=O)NCc1ccc(-c2nn(C3CCN(c4ccc(CN5CCN(c6ccc7c(c6)CN([C@H]6CCC(=O)NC6=O)C7=O)CC5)cn4)CC3)c3ncnc(N)c23)cc1 [Compound 52, (S)—N-(4-(4-amino-1-(1-(5-((4-(2-(2,6-dioxopiperidin-3-yl)-1-oxoisoindolin-5-yl)piperazin-1-yl)methyl)pyridin-2-yl)piperidin-4-yl)-1H-pyrazolo[3,4-d]pyrimidin-3-yl)benzyl)-5-fluoro-2-methoxybenzamide] | < 20
< 10 | COc1ccc(F)cc1C(=O)NCc1ccc(-c2nn(C3CCN(c4ccc(CN5CCN(c6ccc7c(c6)CN([C@H]6CCC(=O)NC6=O)C7=O)CC5)cc4)CC3)c3ncnc(N)c23)cc1 [Compound 53, (S)—N-(4-(4-amino-1-(1-(4-((4-(2-(2,6-dioxopiperidin-3-yl)-1-oxoisoindolin-5-yl)piperazin-1-yl)methyl)phenyl)piperidin-4-yl)-1H-pyrazolo[3,4-d]pyrimidin-3-yl)benzyl)-5-fluoro-2-methoxybenzamide] | < 20
< 10 | COc1ccc(F)cc1C(=O)NCc1ccc(-c2nn(C3CN(c4ccc(CN5CCN(c6ccc7c(c6)CN([C@H]6CCC(=O)NC6=O)C7=O)CC5)cn4)C3)c3ncnc(N)c23)cc1 [Compound 54, (S)—N-(4-(4-amino-1-(1-(5-((4-(2-(2,6-dioxopiperidin-3-yl)-1-oxoisoindolin-5-yl)piperazin-1-yl)methyl)pyridin-2-yl)azetidin-3-yl)-1H-pyrazolo[3,4-d]pyrimidin-3-yl)benzyl)-5-fluoro-2-methoxybenzamide] | < 20
10 to 100 | COc1ccc(F)cc1C(=O)NCc1ccc(-c2nn(C3CCN(C(=O)CCCCN4CCN(c5ccc6c(c5)CN([C@H]5CCC(=O)NC5=O)C6=O)CC4)C3)c3ncnc(N)c23)cc1 (stereo partly drawn) [Compound 55, N-(4-(4-amino-1-(1-(5-(4-(2-((S)-2,6-dioxopiperidin-3-yl)-1-oxoisoindolin-5-yl)piperazin-1-yl)pentanoyl)pyrrolidin-3-yl)-1H-pyrazolo[3,4-d]pyrimidin-3-yl)benzyl)-5-fluoro-2-methoxybenzamide] | ≥ 200
≥ 100 | COc1ccc(F)cc1C(=O)NCc1ccc(-c2nn(C3CCN(c4ccc(CN5CCN(c6ccc7c(c6)CN([C@H]6CCC(=O)NC6=O)C7=O)CC5)nc4)C3)c3ncnc(N)c23)cc1 (stereo partly drawn) [Compound 58, N-(4-(4-amino-1-(1-(6-((4-(2-((S)-2,6-dioxopiperidin-3-yl)-1-oxoisoindolin-5-yl)piperazin-1-yl)methyl)pyridin-3-yl)pyrrolidin-3-yl)-1H-pyrazolo[3,4-d]pyrimidin-3-yl)benzyl)-5-fluoro-2-methoxybenzamide] | ≥ 200
≥ 100 | COc1ccc(F)cc1C(=O)NCc1ccc(-c2nn(C3CCN(c4ccc(CN5CCN(c6ccc7c(c6)CN([C@H]6CCC(=O)NC6=O)C7=O)CC5)cc4)C3)c3ncnc(N)c23)cc1 (stereo partly drawn) [Compound 60, N-(4-(4-amino-1-(1-(4-((4-(2-((S)-2,6-dioxopiperidin-3-yl)-1-oxoisoindolin-5-yl)piperazin-1-yl)methyl)phenyl)pyrrolidin-3-yl)-1H-pyrazolo[3,4-d]pyrimidin-3-yl)benzyl)-5-fluoro-2-methoxybenzamide] | 20 to 200
< 10 | COc1ccc(F)cc1C(=O)NCc1ccc(-c2nn(C3CN(c4ccc(CN5CCN(c6ccc7c(c6)CN([C@H]6CCC(=O)NC6=O)C7=O)CC5)cc4)C3)c3ncnc(N)c23)cc1 [Compound 61, (S)—N-(4-(4-amino-1-(1-(4-((4-(2-(2,6-dioxopiperidin-3-yl)-1-oxoisoindolin-5-yl)piperazin-1-yl)methyl)phenyl)azetidin-3-yl)-1H-pyrazolo[3,4-d]pyrimidin-3-yl)benzyl)-5-fluoro-2-methoxybenzamide] | < 20
< 10 | COc1ccc(F)cc1C(=O)NCc1ccc(-c2nn(C3CN(C(=O)c4ccc(CN5CCN(c6ccc7c(c6)CN([C@H]6CCC(=O)NC6=O)C7=O)CC5)cc4)C3)c3ncnc(N)c23)cc1 [Compound 62, (S)—N-(4-(4-amino-1-(1-(4-((4-(2-(2,6-dioxopiperidin-3-yl)-1-oxoisoindolin-5-yl)piperazin-1-yl)methyl)benzoyl)azetidin-3-yl)-1H-pyrazolo[3,4-d]pyrimidin-3-yl)benzyl)-5-fluoro-2-methoxybenzamide] | 20 to 200
< 10 | COc1ccc(F)cc1C(=O)NCc1ccc(-c2nn(C3CCN(C(=O)c4ccc(CN5CCN(c6ccc7c(c6)CN([C@H]6CCC(=O)NC6=O)C7=O)CC5)cc4)C3)c3ncnc(N)c23)cc1 (stereo partly drawn) [Compound 63] | 20 to 200
< 10 | COc1ccc(F)cc1C(=O)NCc1ccc(-c2nn(C3CCN(C(=O)CCCCCN4CCN(c5ccc6c(c5)CN([C@H]5CCC(=O)NC5=O)C6=O)CC4)C3)c3ncnc(N)c23)cc1 (stereo partly drawn) [Compound 64, N-(4-(4-amino-1-(1-(6-(4-(2-((S)-2,6-dioxopiperidin-3-yl)-1-oxoisoindolin-5-yl)piperazin-1-yl)hexanoyl)pyrrolidin-3-yl)-1H-pyrazolo[3,4-d]pyrimidin-3-yl)benzyl)-5-fluoro-2-methoxybenzamide] | 20 to 200
≥ 100 | COc1ccc(C(=O)N2CCC(N3CCC(CC(=O)N4CCC[C@@H](Nc5ncnc6[nH]cc(C(=O)c7ccc(Oc8ccccc8)cc7Cl)c56)C4)CC3)CC2)cc1N1CCC(=O)NC1=O [Compound 77, (R)-1-(5-(4-(2-(3-((5-(2-chloro-4-phenoxybenzoyl)-7H-pyrrolo[2,3-d]pyrimidin-4-yl)amino)piperidin-1-yl)-2-oxoethyl)-[1,4′-bipiperidine]-1′-carbonyl)-2-methoxyphenyl) dihydropyrimidine-2,4(1H,3H)-dione] | 
< 10 | COc1ccc(C(=O)N2CCN(CCCCCCC(=O)N3CCC(Nc4ncnc5[nH]cc(C(=O)c6ccc(Oc7ccccc7)cc6Cl)c45)CC3)CC2)cc1N1CCC(=O)NC1=O [Compound 78, 1-(5-(4-(7-(4-((5-(2-chloro-4-phenoxybenzoyl)-7H-pyrrolo[2,3-d]pyrimidin-4-yl)amino)piperidin-1-yl)-7-oxoheptyl)piperazine-1-carbonyl)-2-methoxyphenyl)dihydropyrimidine-2,4(1H,3H)-dione] | 
≥ 100 | COc1ccc(C(=O)N2CCCN(Cc3ccc(C(=O)N4CCC(Nc5ncnc6[nH]cc(C(=O)c7ccc(Oc8ccccc8)cc7Cl)c56)CC4)cc3)CC2)cc1N1CCC(=O)NC1=O [Compound 79, 1-(5-(4-(4-(4-((5-(2-chloro-4-phenoxybenzoyl)-7H-pyrrolo[2,3-d]pyrimidin-4-yl)amino)piperidine-1-carbonyl)benzyl)-1,4-diazepane-1-carbonyl)-2-methoxyphenyl)dihydropyrimidine-2,4(1H,3H)-dione] | 
≥ 100 | COc1ccc(C(=O)N2CCN(Cc3ccc(C(=O)N4CCC(Nc5ncnc6[nH]cc(C(=O)c7ccc(Oc8ccccc8)cc7Cl)c56)CC4)cc3)CC2)cc1N1CCC(=O)NC1=O [Compound 80, 1-(5-(4-(4-(4-((5-(2-chloro-4-phenoxybenzoyl)-7H-pyrrolo[2,3-d]pyrimidin-4-yl)amino)piperidine-1-carbonyl)benzyl)piperazine-1-carbonyl)-2-methoxyphenyl)dihydropyrimidine-2,4(1H,3H)-dione] | 
< 10 | COc1ccc(F)cc1C(=O)NCc1ccc(-c2nn(C3CCN(c4ccc(CN5CCN(c6ccc7c(c6)CN([C@H]6CCC(=O)NC6=O)C7=O)CC5)cn4)C3)c3ncnc(N)c23)cc1 (stereo partly drawn) [Compound 92, N-(4-(4-amino-1-(1-(5-((4-(2-((S)-2,6-dioxopiperidin-3-yl)-1-oxoisoindolin-5-yl)piperazin-1-yl)methyl)pyridin-2-yl)pyrrolidin-3-yl)-1H-pyrazolo[3,4-d]pyrimidin-3-yl)benzyl)-5-fluoro-2-methoxybenzamide] | 20 to 200
